Data on seven molecules can be found in publication PMC8003796, “Identification of Anti-Severe Acute Respiratory Syndrome-Related Coronavirus 2 (SARS-CoV-2) Oxysterol Derivatives In Vitro” (International Journal of Molecular Sciences, 2021).

Structures are written as SMILES. Where “and” joins values, the source holds several entries; their conditions need not be identical. Equal values may be shown once. Read-outs that look alike come from different tables or passages of the source. Some results are limits rather than exact numbers.

Data set [1] has as its system SARS-CoV-2. The data set can be described thus: SARS-CoV-2 infection assay, viral RNA in culture supernatant by real-time RT-PCR. Format: cell-based, SARS-CoV-2 Wk-521 strain. The following applies: for effect of pathway inhibitors on viral RNA (in words) / reduction of viral replication: 10 μM; for IC90: Severe acute respiratory syndrome coronavirus 2, read-out: IC90 (90% maximal inhibitory concentration); for IC90 / IC50: viral RNA in culture supernatant, VeroE6/TMPRSS2 cells; for IC50: Severe acute respiratory syndrome coronavirus 2, read-out: IC50 (50% maximal inhibitory concentration); for effect on viral RNA level (in words): semi-synthetic oxysterols, up to 15 μM; for reduction of viral RNA production: 15 μM. For orientation: Real-time PCR tracks product formation cycle by cycle.

The nature of the next data set: in vitro. To be noted: African green monkey.
A further data set deals with VeroE6/TMPRSS2 cells. The data set can be described thus: Cell viability by MTT assay. The following applies: up to 15 μM. In general terms: Tetrazolium assays rely on reduction of a dye to a coloured formazan, in cell work by metabolically active cells.
Data set [2] is described as follows: Pharmacokinetics in mice, single oral gavage dose. The following applies: single oral dose 200 mg/kg; for Cmax: 200 mg/kg, read-out: Cmax (peak plasma concentration). It counts as in vivo, balb/c mice.
The subject of a further data set is hepatitis C virus (HCV). The data set can be described thus: HCV replication assay, luciferase in LucNeo#2 replicon cells. It counts as cell-based, HCV NN strain (genotype-1b). The following applies: 10 μM Oxy210, 1 μM sofosbuvir, 48 h. The procedure:
N, nucleus; M, mitochondria; *, double-membrane vesicle.
HCV replication activity was measured using LucNeo#2 cells, carrying a subgenomic replicon RNA for an HCV NN strain (genotype-1b) and the luciferase gene driven by the HCV replication. LucNeo#2 cells were treated with the compounds indicated in Figure 3C for 48 h, and the luciferase activity was measured with Luciferase Assay System kit (Promega, Madison, WI, USA).

Data set [3] relates to TGFβ signaling. The following applies: fibroblastic cells and tumor cells ref 16; cited from earlier work.
Data set [4] deals with Hh signaling. The following applies: fibroblastic cells and tumor cells ref 16; cited from earlier work.
Data set [5] relates to SARS-CoV-2. The data set can be described thus: Time of addition assay (whole life cycle, entry, post-entry). Format: cell-based, SARS-CoV-2 Wk-521 strain. The following applies: 10 μM Oxy210, 10 μM Oxy133.
Data set [6] relates to SARS-CoV-2. Kind of data set: Electron microscopy of double-membrane vesicle formation in infected cells. To be noted: 10 μM, VeroE6/TMPRSS2 cells, MOI 1, 7 h.
Data set [7] has as its system SARS-CoV-2. The data set can be described thus: Virus-induced cytopathic effect (CPE) viewed under a microscope. It counts as cell-based, SARS-CoV-2 Wk-521 strain. The following applies: 48 h post-inoculation; 10 μM RDV, 30 μM cholesterol, 30 μM 7-KC, 10 μM Oxy133, 10 μM Oxy210. A general note: Damage to the host cells serves as the signal in cytopathic effect assays.

The test system of data set [8] is SARS-CoV-2. The data set can be described thus: Viral N protein by indirect immunofluorescence. It counts as cell-based, SARS-CoV-2 Wk-521 strain. The following applies: 10 μM RDV, 30 μM cholesterol, 30 μM 7-KC, 10 μM Oxy133, 10 μM Oxy210.
In data set [9] the test system is TGFβ signaling. The data set can be described thus: TGFβ activity, CTGF mRNA in NIH3T3 cells. The following applies: 10 μM, NIH3T3 cells stimulated with 20 ng/mL TGFβ. Format: cell-based. The procedure: (§1) Scale bar, 100 μm. (B) Viral N protein in the cells was detected by immunofluorescence analysis as described in Figure 1C. Scale bar, 50 μm. (C) Dose-response curves for viral RNA upon treatment with oxysterol derivatives as indicated. The secreted viral RNA in the culture supernatant at 24 h post-inoculation was quantified by real-time RT-PCR and plotted against compound concentration. The chemical structures of oxysterols are also shown above the graphs. (D) Viability of cells treated with the compounds was quantified using an MTT assay. (E,F) Inhibitory effects toward transforming growth factor β (TGFβ) and hedgehog (Hh) signaling. […] Cellular mRNAs were extracted to quantify a TGFβ-downstream gene, connective tissue growth factor (CTGF) (E), a Hh target gene, Gli1 (F), and Oaz1 for normalization of CTGF and Gli1 (E,F).
(§2) TGFβ activity was examined with NIH3T3 cells precultured with DMEM containing 0.1% bovine calf serum (BCS) overnight. NIH3T3 cells were pretreated with the compounds for 2 h and then stimulated with TGFβ1 (20 ng/mL) in the presence or absence of compounds. After 48 h, RNA was extracted from the cells and analyzed for quantifying the mRNA for a TGFβ target gene, connective tissue growth factor (CTGF), and Oaz1 for normalization. […] Cellular RNA was extracted and analyzed for the expression of a Hh target gene, Gli1, and normalized to Oaz1 expression.

Data set [10] relates to Hh signaling. The data set can be described thus: Hedgehog activity, Gli1 mRNA in NIH3T3 cells. It counts as cell-based. The following applies: 10 μM, CAPAN-1 conditioned medium containing Shh. The procedure: as §1, §2

Take `CS(=O)(=O)c1ccc(C(=O)Nc2ccc(Cl)c(-c3ccccn3)c2)c(Cl)c1` [GDC0449, reference compound]: the “effect of pathway inhibitors on viral RNA (in words)” value in the data set with SARS-CoV-2 [1] (24 h post-inoculation) is on record as “did not decrease the viral RNA levels”.

For `CCCCCC[C@@](C)(O)[C@H]1CC[C@H]2[C@@H]3C[C@H](O)[C@H]4C[C@@H](O)CC[C@]4(C)[C@H]3CC[C@@]21C` [Oxy133], in the data set with SARS-CoV-2 [1] (24 h post-inoculation), the IC90 is more than 15 µM, the IC50 is more than 15 µM and the “effect on viral RNA level (in words)” value is reported as “did not show antiviral activity up to 15 μM”. For the same molecule, in the data set “in vitro”, the CC50 was more than 15 µM.

In the case of `C[C@]12CC[C@H](O)C[C@@H]1CC[C@@H]1[C@@H]2CC[C@@]2(C)[C@H]1CC[C@@H]2[C@](C)(O)CCc1ccc(F)cc1` [Oxy186], the “maximum reduction in viral RNA as compared to control” value in the data set on SARS-CoV-2 [1] (12 μM, 24 h post-inoculation) worked out at 83%. Moreover, in the data set with SARS-CoV-2 [1] (24 h post-inoculation), the IC90 was more than 15 µM, the IC50 is 7.4 µM and the “effect on viral RNA level (in words)” value is given as “reduced viral RNA level in a dose-dependent manner”. Also, in “in vitro”, the CC50 was more than 15 µM. Also, the “cytotoxicity / cell viability (in words)” value in the data set on VeroE6/TMPRSS2 cells was “No significant cytotoxicity”.

On to `C[C@]12CC[C@H]3[C@@H](CC=C4C[C@@H](O)CC[C@@]43C)[C@@H]1CC[C@@H]2[C@](C)(O)CCc1cccnc1` [Oxy210], for which the “reduction of viral replication” value with SARS-CoV-2 [1] was “more than 90%”. Also, in the data set on SARS-CoV-2 [1] (24 h post-inoculation), the “reduction of viral RNA production” value was 99.4% and > 99%; the IC90 was 8.6 µM; the IC50 was 5.5 µM; the “effect on viral RNA level (in words)” value is given as “reduced viral RNA level in a dose-dependent manner”. In the data set “in vitro”, this molecule gave a CC50 of more than 15 µM. In data set [2] (balb/c, mouse, in vivo, po, plasma), the Cmax was 8160 ng/mL and 19.4 µM. Besides, in data set [2] (balb/c, mouse, in vivo, plasma), the MRT (usually the average time that molecules of a dose stay in the body) came to 3.5 h and the Tmax – broadly, the time at which the peak concentration occurs – was 1 h. The AUC(0-inf) in [2] (balb/c, mouse, in vivo, plasma, read-out: AUC (AUCinf)) is 29300 ng·h/mL. Also, in data set [2], the “tolerability (in words)” value is “well tolerated”. The Cmax in data set [2] (plasma) is approximately 19 µM. The “cytotoxicity / cell viability (in words)” value in the data set on VeroE6/TMPRSS2 cells is “No significant cytotoxicity”. Moreover, the “HCV replication, luciferase activity (in words)” value with hepatitis C virus (HCV) is listed as “reduced the DMV-dependent RNA replication of HCV”. The “inhibition of TGFβ signaling (in words)” value with TGFβ signaling [3] is reported as “inhibited”. In the data set with Hh signaling [4], the “inhibition of Hh signaling (in words)” value is “inhibited”. Also, in the data set on SARS-CoV-2 [5] (24 h), the “viral RNA, compound present in the whole life cycle (in words)” value is recorded as “clearly reduced viral RNA levels”. In addition, the “viral RNA, compound present post-entry (in words)” value with SARS-CoV-2 [5] (15 μM RDV, added 2 h post-inoculation for 21 h) was “clearly reduced viral RNA levels”. The “DMV formation in SARS-CoV-2-infected cells (in words)” value in the data set with SARS-CoV-2 [6] was “remarkably reduced the DMV formation”. For the same molecule, the “effect on SARS-CoV-2-induced CPE (in words)” value with SARS-CoV-2 [7] is recorded as “blocked”. In the data set with SARS-CoV-2 [8], the “effect on virus propagation / spread of infection, N protein (in words)” value is reported as “blocked”.

As for `CC[C@@](O)(CCc1cccnc1)[C@H]1CC[C@H]2[C@@H]3CC[C@H]4C[C@@H](O)CC[C@]4(C)[C@H]3CC[C@]12C` [Oxy232], in the data set on TGFβ signaling [9], the “inhibition of TGFβ signaling (CTGF mRNA, in words)” value is recorded as “devoid of significant TGFβ inhibitory properties”. Besides, the “reduction of viral replication” value in the data set with SARS-CoV-2 [1] is “more than 90%”. Further, in the data set with SARS-CoV-2 [1] (24 h post-inoculation), the “reduction of viral RNA production” value was 99.9% and > 99%; the IC90 worked out at 7.8 µM; the IC50 was 5.4 µM; the “effect on viral RNA level (in words)” value is recorded as “reduced viral RNA level in a dose-dependent manner”. The CC50 in the data set “in vitro” is more than 15 µM. In addition, the “cytotoxicity / cell viability (in words)” value in the data set on VeroE6/TMPRSS2 cells was “slightly reduced cell viability when used at concentrations above 10 μM”. Besides, the “inhibition of Hh signaling (Gli1 mRNA, in words)” value with Hh signaling [10] was “retains inhibitory activity toward Hh signaling”.

As for `NC(=O)c1ccc(-c2nc(-c3ccc4c(c3)OCO4)c(-c3ccccn3)[nH]2)cc1` [SB431542, reference compound], the “effect of pathway inhibitors on viral RNA (in words)” value in the data set on SARS-CoV-2 [1] (24 h post-inoculation) is recorded as “did not significantly inhibit the production of viral RNA”.

For `CC(C)OC(=O)[C@H](C)N[P@](=O)(OC[C@H]1O[C@@H](n2ccc(=O)[nH]c2=O)[C@](C)(F)[C@@H]1O)Oc1ccccc1` [sofosbuvir, reference compound], the “HCV replication, luciferase activity (in words)” value in the data set on hepatitis C virus (HCV) is “positive control”.
